In the case of `O=S(=O)(On1nnc2ccccc21)c1ccccc1`, the melting point (as a rule, the temperature, or range, at which the solid turns liquid) fell in the range of 83 to 84 °C.

The compound `O=C1N[C@H](Cc2ccc(C(F)(F)F)cc2)[C@@H](c2ccc(F)cc2)O1` (racemic) came in with a melting point of 83 to 84 °C.

Compound `COc1ccccc1N(CCN1CCC(C(=O)c2ccc(F)cc2)CC1)C(=O)c1ccc(CO)cc1` returned a melting point of 87 to 91 °C.

Consider `CC(=O)C1CCC2C3CCC4CC(O)CCC4(C)C3C(OC(=O)CCl)CC12C` (stereo unspecified), for which the melting point lay in the range of 83 to 86 °C.

`COc1cccc2c(CCCN(CC3CC3)C3COc4c(F)ccc(C(N)=O)c4C3)coc12` (stereo unspecified) displayed a melting point of 125 to 132 °C.

Compound `C=CCc1c(C)nc2c(OCc3ccccc3)cccn12` had a melting point of 90.5 to 91.5 °C.

As to `COC(=O)/C=C/c1nc(C=O)ccc1OC`, the melting point lay in the range of 132 to 134 °C.

`C1=C(c2ccccc2)CCN(Cc2n[nH]c3c2CCc2ccccc2-3)C1`: the melting point was in the range of 175 to 176 °C.

`COc1cc(C(=O)COC(C)=O)ccc1O` returned a melting point of 115 to 117 °C.

On to `CCC1(CCCCN2CCN(c3cccc(Cl)c3)CC2)C(=O)Nc2cc(F)ccc21` (stereo unspecified), for which the melting point fell in the range of 116 to 117 °C.

For `CCC(=O)N1CCC(C(=O)O)CC1`, the melting point was 91 to 94 °C.

As to `CC1(C)CCC(C)(C)c2cc(C(=O)OCc3ccc(C(=O)OCc4ccccc4)cc3)ccc21`, the melting point was 78 to 79 °C.

`Cn1nc(C#N)c(Nc2ccccc2[N+](=O)[O-])n1` yielded a melting point of 144 to 145 °C.

Consider `Cc1cc(O)ccc1C(=O)N1CCN(C)CC1`, for which the melting point is 167 to 168 °C.

Compound `Cc1ccc(-n2c(-c3sc(Nc4ccccc4)nc3-c3ccccc3)nc3ccccc3c2=O)cc1` returned a melting point of 225 to 228 °C.

`CCOC(=O)C(O)=Cc1cc(CCc2ccccc2)cnn1`: the melting point fell in the range of 94 to 95 °C.

Regarding `CCCc1c(OCCCOc2ccc(C(=O)CCC(=O)O)cc2C)ccc(C(C)=O)c1O`, the melting point lay within 179 to 180 °C.

`COc1cc(C(=O)c2ccccc2N)ccn1`: the melting point lay within 82 to 86 °C.

Take `O=C(O)c1cnc(O)cc1Cl`: the melting point was in the range of 299 to 300 °C.

For the compound `CCc1cc2[nH]c(=O)cc(Cl)c2c(CC)n1`, the melting point fell in the range of 172 to 174 °C.

`COC(=O)/C=C/c1ccc(Br)s1` had a melting point of 60 to 62 °C.

`Cc1ncncc1NC(=O)Nc1ccc(-n2nc(C(F)(F)F)cc2C2CC2)cc1` yielded a melting point of 190 to 192 °C.

Compound `O=C(O)COc1cc2c(c(Cl)c1Cl)C(=O)C(c1ccccc1)(c1ccccc1)C2` had a melting point of 251 to 252 °C.

`CCCCCc1c(C=O)sc2cc(OC)ccc12`: the melting point was in the range of 44 to 46 °C.

The compound `CC(C)C(C(=O)O)c1ccc(OC(F)(F)C(F)F)cc1` (stereo unspecified) registered a melting point of 92 to 97 °C.

`Cc1nnc(-c2ccc3ncn(-c4cc(C(F)(F)F)ccc4Cl)c3c2)o1` showed a melting point of 211 to 212 °C.

Turning to `Cc1cc(C)nc(N(C(=O)NS(C)(=O)=O)c2ccccc2)n1`, the melting point was in the range of 186 to 192 °C.

`COc1ccc2cc3c(c(-c4ccc(F)cc4)c2c1)C(=O)NC3=O` displayed a melting point of 281 to 284 °C.

`CCOc1nn(Cc2ccc(OCc3nc(-c4ccco4)oc3C)cc2)cc1CCC(=O)O`: the melting point lay in the range of 129 to 130 °C.

As for `O=C(Nc1ccc2[nH]ncc2c1)O[C@H](c1ccc(Cl)c(Cl)c1)[C@H]1CCCCN1`, the melting point stood at 210 °C.

In turn, `CCOC(=O)CC(=O)c1cccc(-n2ccnn2)c1` displayed a melting point of 72 to 74 °C.

Regarding `O=C1NC(CO)Cc2c[nH]c3cccc1c23` (stereo unspecified), the melting point was 186 to 187 °C.

Turning to `CNC(=O)C(=NOC)c1ccccc1COc1ncc(C)cc1Br`, the melting point fell in the range of 104 to 105 °C.

In the case of `CC(C)N(C(=O)CN1C(=O)CC(=O)N(c2ccccc2)c2ccccc21)c1ccc(C(F)(F)F)cc1`, the melting point fell in the range of 186 to 188 °C.

As to `CCCn1c(=O)sc2cc(F)c(-n3c(=O)cc(CC)[nH]c3=O)cc21`, the melting point was over 250 °C.

`O=C(O)C1CCN1C(c1ccccc1)c1ccccc1` (stereo unspecified) showed a melting point of 132 to 137 °C.

On to `O=C(O)c1ccc(COc2ccccc2-c2cc(O)c(SCCc3ccccc3)c(=O)o2)cc1`, for which the melting point is 227 °C.

Consider `CC(C)=NNc1cc2c(nn1)CCN(C(=O)C1CCC1)C2`, for which the melting point was in the range of 175 to 178 °C.

With `COC(=O)C[C@H]1N=C(c2ccccc2Cl)c2cc(Cl)ccc2NC1=O`, the melting point was 168 to 170 °C.

On to `CCCCCCc1cc2c(cc1S)C(=O)CC2`, for which the melting point stood at 100 °C.

In turn, `COc1cc2[nH]c(N(C)Cc3cccc(N)c3)nc(=O)c2c(C)c1OC` had a melting point of 268 to 270 °C.

In turn, `Cc1ccc(-c2ccc(C)cc2[N+](=O)[O-])c([N+](=O)[O-])c1` returned a melting point of 138 to 141 °C.

In turn, `COc1ccc(OCC2CC(Cn3ccnc3)(c3ccc4ccccc4c3)N(C)O2)cc1` (stereo unspecified) gave a melting point of 143 to 145 °C.

In the case of `CCCOCCSc1ccc(-c2ccc3c(c2)C=C(C(=O)Nc2ccc(CN(C)C4CCOCC4)cc2)CCS3(=O)=O)cc1`, the melting point was in the range of 198 to 200 °C.

Compound `N#Cc1nn(-c2c(Cl)cc(C(F)(F)F)cc2Cl)cc1C1(Cl)CC1C(F)F` (stereo unspecified) gave a melting point of 124 to 125 °C.

`COC(=O)c1cc(Cl)c(N=C2NCCN2C(C)=O)c(Cl)c1`: the melting point is 188 to 189 °C.

Turning to `N#Cc1nc(-c2cnn(-c3c(Cl)cc(C(F)(F)F)cc3Cl)n2)[nH]c1C#N`, the melting point lay within 192 to 194 °C.

For `CS(=O)(=O)CC1COCc2nc3c(N)nc4ccccc4c3n21` (stereo unspecified), the melting point lay in the range of 158 to 161 °C.

As to `Cc1ccc(N(C)S(=O)(=O)c2cccs2)c2[nH]c(-c3ncc(CO)s3)cc12`, the melting point lay within 184 to 185 °C.

On to `Cn1ccc2c(C(=O)c3ccccc3OCCCCl)cccc21`, for which the melting point came out at 60 °C.

In the case of `Cc1nc(N)c2nc(CNC(=O)C3CC3)n(CC(C)C)c2c1C`, the melting point lay in the range of 182 to 184 °C.

For the compound `CC(=O)N(O)C(C)c1cc(C(C)(C)C)c(O)c(C(C)(C)C)c1` (stereo unspecified), the melting point lay in the range of 153 to 154 °C.

The compound `O=C1c2ccc(F)cc2C(=O)N1CCN1CCN(c2n[nH]c3cc(F)ccc23)CC1` gave a melting point of 282 to 285 °C.

Turning to `c1cnc(NCc2ccc3c(c2)-c2[nH]nc(-c4ccsc4)c2C3)nc1`, the melting point lay within 259 to 260 °C.

Take `CC(C)Oc1ccc(CCCOc2nn(C)cc2CC(=O)O)c(Oc2ncc(C(F)(F)F)cc2Cl)c1`: the melting point fell in the range of 92 to 94 °C.

In turn, `NC(N)=Nc1nc(-c2ccc(CNC(=O)c3ccco3)o2)cs1` had a melting point of 246 °C.

Turning to `Cc1cccc(NCCC(N)=S)c1C`, the melting point fell in the range of 116 to 118 °C.

Take `C=CCONC(=O)c1nc(-c2ccc(F)cc2)cc(N)c1Cl`: the melting point was in the range of 182 to 185 °C.

For the compound `O=c1c2c(CCCCCCc3ccccc3)n[nH]c2c2cccnc2n1-c1ccccc1`, the melting point lay within 150 to 151 °C.

In the case of `CCC(=O)c1c[nH]c2cc(C(=O)OC)ccc12`, the melting point lay within 229 to 231 °C.

`CCOC(=O)CNc1c(C(C)C)cc(C(O)(C(F)(F)F)C(F)(F)F)cc1C(C)C` yielded a melting point of 72 to 73 °C.

With `CN1CC2CC(=NO)c3cccc4c3N2C(C1)c1ccccc1C4` (stereo unspecified), the melting point fell in the range of 209 to 210 °C.

For the compound `COc1cn(-c2cccc3cccnc23)nc(-c2ccnn2-c2ccccc2)c1=O`, the melting point lay within 189 to 192 °C.

The compound `CC(=O)OC1CSC(Oc2cccc(-c3ccc(F)cn3)c2)C(OC(C)=O)C1OC(C)=O` (stereo unspecified) had a melting point of 113 °C.

As for `CCN(CC)CC(O)CONC(=O)NC(C)(C)C` (stereo unspecified), the melting point lay within 58 to 61 °C.

On to `CCc1cc(S)n2nccc2n1`, for which the melting point lay in the range of 178 to 180 °C.

With `CCSc1c(C=NO)c(=O)n(C)c(=O)n1C`, the melting point fell in the range of 161 to 163 °C.

For `COc1ccc2cc(C#CC(C)(C)O)ccc2c1`, the melting point was 118 to 119 °C.

`COc1ccc(Br)cc1C12CC3CC(CC(C3)C1)C2` came in with a melting point of 138 to 139 °C.

`C=CC(=O)N1CCSc2ccc(OC)cc2C1` came in with a melting point of 79 to 81 °C.

In turn, `CCC(=O)c1c(C#N)nn(-c2c(Cl)cc(C(F)(F)F)cc2Cl)c1N` registered a melting point of 167 to 169 °C.

The compound `CNNC(=O)c1ccc(C(=O)NNC)cc1` came in with a melting point of 240 to 241 °C.

With `O=[N+]([O-])c1ccc(F)cc1CBr`, the melting point was in the range of 38 to 41 °C.

`CC(C(=NO)c1ccc(Cl)cc1Cl)c1cccnc1` (stereo unspecified): the melting point lay within 163 to 165 °C.

The compound `O=C(O)c1ccc2c(c1)Sc1ccc(Cl)cc1C=C2` displayed a melting point of 302 to 304 °C.

On to `CCCCCC[C@@H](CC(N)=O)N(CCC)C(=O)[C@H](CCCC(=O)O)NC(=O)c1cn(Cc2ccccc2)c2ccccc12`, for which the melting point lay within 147 to 157 °C.

`Cc1c(C(N)=O)sc2cncc(Oc3ccc(Cl)cc3)c12`: the melting point lay within 174 to 175 °C.

Compound `Nc1ccc(-c2cc3c(Oc4ccc(Cl)cc4)cncc3s2)cc1` showed a melting point of 178 to 182 °C.

`CCOC(=O)c1ccc(-c2csc(-c3ccc(Cl)cc3)n2)s1`: the melting point lay in the range of 234 to 236 °C.

`Cc1ccc(C)c(NS(=O)(=O)c2ccc(N3CCNC3=O)cc2)c1` yielded a melting point of 213 to 215 °C.

With `CC(=O)Nc1ccc2c(c1)-n1cc(C(=O)O)nc1CO2`, the melting point fell in the range of 295 to 296 °C.

The compound `c1ccc(OCCSCc2nnc(-c3ccc(OCCCN4CCCC4)cc3)o2)cc1` yielded a melting point of 70 °C.

In turn, `O=C(c1ccc2nonc2c1)N1CC2C=CC1C2` (stereo unspecified) showed a melting point of 106 to 108 °C.

`COCCNC(=O)c1cccc(-c2cccc3c(F)c(Cc4cccc(C(F)(F)F)c4)sc23)c1` yielded a melting point of 115 to 116 °C.

Compound `Cc1onc2c1C(=O)N(C(C)(C)C)C2=O` came in with a melting point of 48 to 50 °C.

As for `CNc1cn(-c2cncc(F)c2)nc1Cl`, the melting point was 118 to 119 °C.

With `NC(=O)c1cccnc1Nc1cccc([N+](=O)[O-])c1`, the melting point was 240 to 241 °C.

In turn, `CN(C(=O)c1ccc(Cn2ccc3ncnc-3c2)o1)C1CCCCC1` returned a melting point of 189 to 190 °C.

`C=CCNc1nc(=O)c2cccnc2n1Cc1ccc(F)cc1` yielded a melting point of 190 to 194 °C.

On to `CON=C(Cl)c1ccccc1S(N)(=O)=O`, for which the melting point lay within 155 to 158 °C.

`CC(C)(C)OC(=O)Nc1cc(OCC2COC(=O)O2)c(C#Cc2ccccc2)cc1NC(=O)CC(=O)c1cccc(C#N)c1` (racemic) came in with a melting point of 181 °C.

The record behind these values is a melting point compilation (Tetko et al.; mined from patent text by program, amines drawn as free bases though some values may be those of a salt).
